{"source": "patent US9737525B2", "about": "“Small molecule activators of NRF2 pathway” (The General Hospital Corporation, priority 2013, dated 2017)", "key": {"[1]": {"system": "NRF2-responsive proteins NQO1 and GCLM", "test": "Induction of NQO1 and GCLM proteins in differentiated ST14A cells (immunoblotting)", "assay_type": "cell-based, rat", "settings": "differentiated HD mutant and wild type ST14A cells, 24 hours", "procedure": "To assess protein levels, cell extracts were prepared from cells washed with PBS and lysed with buffer containing 2% SDS, Complete EDTA-free Protease Inhibitor Cocktail (Roche) and 1 mM phenylmethylsulfonyl fluoride. To prepare brain extracts for analysis, frozen mouse cortical tissues were homogenized in PBS containing protease inhibitors with an Kontes Pellet Pestle (Kimble/Kontes). They were later sonicated and lysed overnight at 4° C. in 2× volume of lysis buffer containing 2% SDS and protease inhibitors. Protein concentrations in ST14A cell extracts and homogenized cortical tissues were evaluated using a BCA analysis kit and normalized. Samples were prepared in a SDS buffer containing DTT and separated on bis-acrylamide protein gels via electrophoresis and transferred onto a 0.2 μm PVDF membrane). Membranes were probed for NQO1 (Sigma N5288, 1:1,000), GCLM, (Abcam ab126704, 1:800), SIRT2 (Sigma S8447, 1:2,500), histone H3 (Cell Signaling 4499, 1:2,000), acetylated H3 (K56) (Millipore 04-1135, 1:500), TNFα (Abcam ab1793, 1:1,500), GADPH (Millipore MAB374, 1:10,000), actin (Sigma A2066, 1:1250), α-tubulin (Sigma T6074, 1:20,000), and acetylated α-tubulin (Sigma T6793, 1:2,500) overnight in 5% milk in PBST at 4° C. on a rocker. Membranes were thrice washed in PBST for 15 min on a shaker and incubated in either an anti-rabbit-HRP (Bio-Rad 170-5046, 1:10,000) or anti-mouse-HRP (Sigma A3682, 1:4,000) secondary solution as appropriate in 3% milk in PBST for 1 hr at room temperature on a rocker. After four washes of 15 min in PBST on a shaker, blots were visualized using SuperSignal West Pico Chemiluminescent Substrate (Pierce 34080) or SuperSignal West Dura Extended Duration Substrate (Thermo 34075) and exposed on Scientific Imaging Film (Kodak 864 6770).\nCompound bioactivity was tested in the rat embryonic striatal cell lines ST14A, which stably express either a mutant expanded repeat (128Q) or wild type (26Q) 546 amino acid huntingtin (HTT) fragment (a generous gift of E. Cattaneo) (Ehrlich et al., 2001) ST14A cells were propagated at 33° C. in the presence of serum. To induce neuronal differentiation, cells were serum deprived and cultured at 37° C. in the presence of N2 supplement. Cells were treated with compounds concurrently with induction of neuronal differentiation for 24 hours, as described (Quinti et al., 2010).\nThe NRF2 activation properties of further MIND4 structural analogs with variable potencies of SIRT2 inhibition were tested as described previously (see Table 1) Changes in expression of the canonical NRF2-responsive proteins NQO1 and GCLM, the transcription of which was induced by MIND4, was selected as a readout of pathway activation. Protein levels of NQO1 and GCLM were examined by immunoblotting in compound treated mutant HD and wild-type ST14A cells. […] This hypothesis was tested using a second panel of MIND4 analogs (see Table 3)."}, "N9 microglial cells": {"system": "N9 microglial cells", "test": "ROS/RNI assays in stimulated N9 microglial cells", "assay_type": "cell-based", "settings": "LPS- and TNFα-activated microglial cells, 20 hr", "procedure": "N9 microglial cells were cultured in RPMI medium containing Glutamax (Invitrogen) and supplemented with 10% FBS (Endotoxin levels lower than 10 EU/ml). Cells were plated in 96 well plates (5×10^4 per well) and cultured overnight before stimulation with LPS (100 ng/ml) and TNFα (10 ng/ml) for 20 hr in medium supplemented with DMSO or with the tested compounds. ROS were detected by flow cytometry after microglia incubation with […] of 5-(and-6)-chloromethyl-2′,7′-dichlorodihydrofluorescein diacetate, acetyl ester (CM-H2DCFDA) (Invitrogen) for 20 min. The production of NO by iNOS was measured indirectly by assaying nitrites in the culture supernatant using the Griess reaction [Liu, 2013]. Briefly, […] of supernatants were incubated with equal amount of Griess reagent (1% sulphanilamide, 0.1% naphthylethylenediamine in 2% phosphoric acid solution) and the absorbance read at 550 nm after 20 min of incubation at room temperature."}, "[2]": {"target": "human recombinant SIRT2 deacetylase (Homo sapiens (Human), UniProt Q8IXJ6)", "sequence (Q8IXJ6 whole entry)": "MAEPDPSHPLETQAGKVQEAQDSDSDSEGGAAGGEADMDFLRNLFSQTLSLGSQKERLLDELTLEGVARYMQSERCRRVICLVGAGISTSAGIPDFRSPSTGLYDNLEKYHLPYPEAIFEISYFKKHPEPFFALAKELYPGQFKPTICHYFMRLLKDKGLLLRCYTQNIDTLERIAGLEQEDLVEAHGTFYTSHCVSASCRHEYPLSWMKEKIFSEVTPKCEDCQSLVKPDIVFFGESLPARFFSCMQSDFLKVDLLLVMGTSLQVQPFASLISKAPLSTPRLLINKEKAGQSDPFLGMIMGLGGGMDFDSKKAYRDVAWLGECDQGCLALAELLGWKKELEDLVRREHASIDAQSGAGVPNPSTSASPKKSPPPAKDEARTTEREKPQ", "test": "Sirtuin biochemical deacetylation assay, SIRT2", "settings": "for SIRT2 inhibition: dose-response", "procedure": "Modulation of sirtuin activity by compounds was assessed using the Flour de Lys fluorescent biochemical assay in a 96-well format as described (Outeiro et al., 2007). The deacetylation reaction was performed at 37° C. for an hour in the presence of human recombinant enzymes: SIRT1 (BioMol-SE-239) 1 unit/per reaction, SIRT2 (BioMol-SE-251) 5 units/per reaction, or SIRT3 (BioMol-SE-270) 5 units/per reaction, compound of interest, standard buffer, 50 μM substrate, and 500 μM NAD^+ according to the manufacturer's protocol. […]"}, "[3]": {"target": "recombinant human KEAP1 protein (Homo sapiens (Human), UniProt Q14145)", "sequence (Q14145 whole entry)": "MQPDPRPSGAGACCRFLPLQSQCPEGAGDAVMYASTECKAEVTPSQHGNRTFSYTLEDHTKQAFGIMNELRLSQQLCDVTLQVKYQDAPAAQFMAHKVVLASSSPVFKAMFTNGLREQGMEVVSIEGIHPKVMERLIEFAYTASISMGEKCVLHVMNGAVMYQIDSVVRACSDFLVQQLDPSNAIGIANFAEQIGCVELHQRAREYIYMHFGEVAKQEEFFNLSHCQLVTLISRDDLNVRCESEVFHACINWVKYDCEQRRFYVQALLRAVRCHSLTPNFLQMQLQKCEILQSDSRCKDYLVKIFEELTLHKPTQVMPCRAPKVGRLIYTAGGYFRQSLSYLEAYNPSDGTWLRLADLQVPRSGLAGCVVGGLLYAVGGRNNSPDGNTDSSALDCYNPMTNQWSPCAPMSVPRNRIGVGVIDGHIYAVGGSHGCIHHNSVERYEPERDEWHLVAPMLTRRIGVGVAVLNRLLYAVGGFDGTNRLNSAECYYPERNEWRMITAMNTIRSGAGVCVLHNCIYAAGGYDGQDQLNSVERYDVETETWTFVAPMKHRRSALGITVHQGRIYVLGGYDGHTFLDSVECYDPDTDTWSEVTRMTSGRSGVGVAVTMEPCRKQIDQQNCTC", "test": "SPR (Surface Plasmon Resonance) Biacore binding assay", "procedure": "Briefly, compound MIND4-17 and MIND4 binding to baculovirous expressed KEAP1 by Surface Plasmon Resonance (SPR) binding Biacore assay was performed by CRO Precision Antibody, Inc. Binding experiments were performed on Biacore T-200 at 25° C. using CM5 chip. Anti-GST tag antibody was immobilized by amine coupling. The ligand KEAP1 was captured until 800 RU was reached. Antigen was flowed over the chip at variable concentrations. Binding of analyte to the ligand was monitored in real time to obtain on (ka) and off (kd) rates. The equilibrium constant (KD) was calculated from the observed ka and kd. In pilot experiment the analytes MIND4 and MIND4-17 were flowed over the chip at 3 different concentrations as indicated and kinetic analysis was performed. Full kinetic analysis was performed for MIND4-17 using analyte concentrations of 140 μM (the saturating amount) and run at serial dilutions 70, 35, 17.5, 8.75, 4.375 and 0. Chi square (χ^2) analysis was carried out between the actual Sensorgram (colored line) and the sensorgram generated from the BIAnalysis software (black line) to determine the accuracy of the analysis. (χ^2) value within 2-1 is considered significant (accurate) and below 1 is highly significant (highly accurate). The flow rate used for capturing the ligand was […] and the flow rate for kinetics analysis was […]. The Biacore binding assay was performed using assay buffer: 10 mM HEPES buffer (pH 7.4), 150 mM NaCl, 3 mM EDTA, 0.005% P20 (polyoxyethylenesorbitan), 5% DMSO; regeneration buffer: 10 mM HEPES buffer (pH 7.4), 150 mM NaCl, 3 mM EDTA, 0.005% P20 (polyoxyethylenesorbitan), 5% DMSO; and conjugation buffer: 10 mM sodium acetate buffer (pH 4.5)."}}, "note": "Entries after “also recorded” stand apart in the source; their conditions may differ. Where two headings read alike, the source gives them in different places."}
{"compound": "O=[N+]([O-])c1ccc(Sc2nnc(COc3ccccc3)n2-c2ccccc2)c2ncccc12", "note": "[MIND4, 5-nitro-8-{[5-(phenoxymethyl)-4-phenyl-4H-1,2,4-triazol-3-yl]thio}quinoline]", "values": [{"measurement": "Induction of NRF2-responsive proteins NQO1 and GCLM", "setting": "[1]", "result": "induced dose-dependent increases of NQO1 and GCLM protein"}, {"measurement": "Production of RNI (nitrites in supernatants)", "setting": "N9 microglial cells", "result": "reduced the production of RNI"}, {"measurement": "ROS levels", "setting": "N9 microglial cells", "result": "reduced ROS levels"}, {"measurement": "IC50", "setting": "[2]; Table 1", "result": 1.7, "unit": "µM"}, {"measurement": "IC50", "setting": "[2]; Table 3", "result": 3.5, "unit": "µM"}, {"measurement": "SIRT2 inhibition", "setting": "[2]", "result": "dose-dependent and selective inhibition of human recombinant SIRT2 deacetylase"}, {"measurement": "Kd", "setting": "[3]", "result": 22.8, "unit": "µM"}, {"measurement": "Mode of binding to KEAP1", "setting": "[3]", "result": "reversible binding"}, {"measurement": "Kd", "setting": "[3]; 25° C., kinetic analysis", "result": 22.8, "unit": "µM"}]}
{"compound": "O=[N+]([O-])c1ccc(Sc2nnc(COc3ccccc3)n2-c2ccccc2)nc1", "note": "[MIND4-17]", "values": [{"measurement": "Induction of NRF2-responsive proteins NQO1 and GCLM", "setting": "[1]", "result": "potently induces NRF2-responses; also recorded: dose-dependent induction of NQO1 protein"}, {"measurement": "Production of RNI (nitrites in supernatants)", "setting": "N9 microglial cells", "result": "reduced the production of RNI"}, {"measurement": "ROS levels", "setting": "N9 microglial cells", "result": "reduced ROS levels"}, {"measurement": "IC50", "setting": "[2]; Table 3", "result": "> 50", "unit": "µM"}, {"measurement": "SIRT2 inhibition", "setting": "[2]", "result": "no inhibitory activity; also recorded: no detectable SIRT2 inhibition activity"}, {"measurement": "Kd", "setting": "[3]", "result": 16.5, "unit": "µM"}, {"measurement": "Mode of binding to KEAP1", "setting": "[3]", "result": "reversible binding"}, {"measurement": "Kd", "setting": "[3]; 25° C., kinetic analysis", "result": 16.5, "unit": "µM"}]}
